pKi: −log10 of the molar value.

The target in this experiment is Alpha-1B adrenergic receptor (Mesocricetus auratus) (UniProt P18841). In words: Compound was tested for binding affinity against cloned Alpha-1B adrenergic receptor from hamster smooth muscle using radioligand ([3H]prazosin) binding assay.
Alpha-1B adrenergic receptor (Mesocricetus auratus), sequence (P18841 whole entry, looked up): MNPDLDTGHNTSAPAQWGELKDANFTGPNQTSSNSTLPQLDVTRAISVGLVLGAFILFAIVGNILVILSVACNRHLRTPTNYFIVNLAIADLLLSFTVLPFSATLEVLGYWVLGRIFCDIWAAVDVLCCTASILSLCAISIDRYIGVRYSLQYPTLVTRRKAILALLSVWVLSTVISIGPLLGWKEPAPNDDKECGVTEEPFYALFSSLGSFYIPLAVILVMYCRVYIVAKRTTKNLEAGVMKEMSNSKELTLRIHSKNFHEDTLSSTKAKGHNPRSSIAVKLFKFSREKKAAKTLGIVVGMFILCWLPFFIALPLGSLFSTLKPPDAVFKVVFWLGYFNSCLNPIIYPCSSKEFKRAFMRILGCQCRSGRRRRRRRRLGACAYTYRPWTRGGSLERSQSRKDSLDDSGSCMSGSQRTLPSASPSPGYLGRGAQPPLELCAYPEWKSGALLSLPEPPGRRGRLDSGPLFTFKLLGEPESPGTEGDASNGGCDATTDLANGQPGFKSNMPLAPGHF
As a reminder, the pKi is the Ki on a negative log10 scale, so that one unit is a factor of ten. Molecule `COc1cc2nc(N3CCN(C(=O)c4ccco4)[C@H]4CCCC[C@H]43)nc(N)c2cc1OC` [CYCLAZOSIN] gave a pKi of 9.51.
For the molecule `COc1cc2nc(N3CCN(C(=O)c4ccco4)C4CCCCC43)nc(N)c2cc1OC` (stereo not drawn) [(Cyclazosin)[4-(4-Amino-6,7-dimethoxy-quinazolin-2-yl)-octahydro-quinoxalin-1-yl]-furan-2-yl-methanone], the pKi was 9.23.
The result for `COc1cc2nc(N3CCN(C(=O)c4ccco4)[C@@H]4CCCC[C@@H]43)nc(N)c2cc1OC` reads 9.16.

The record behind these values is BindingDB's records for doi:10.1021/jm960510x (University of Camerino, 1996).
